According to US9737532B2, “Method of treating ischemia/reperfusion injury” (TOKYO UNIVERSITY OF SCIENCE FOUNDATION, priority 2011, dated 2017):
Like-named read-outs stand apart in the source and are kept apart here. Where a SMILES comes first, the peptide text is derived from it. The star is where a group is joined. Cbz = O=C(OCc1ccccc1)*

Assays:
p53 = p53 protein stabilization by Western blotting in mouse fibroblast cells; type: cell-based; conditions: for p53 protein stabilization: 8 hours, FIG. 4A; for p53 stabilization: 24 hours, FIG. 1A; for p53 accumulation: summary statement of the discussion
Parp1 protein [1] = assay: Parp1 protein levels by Western blotting in mouse cells; type: cell-based; conditions: for Parp1 reduction, p53 dependency: MEFs from p53+/+ or −/− mice; for reduction in Parp1 protein: summary statement of the discussion; for basal Parp1 protein levels: MG132 alone, 5 μM
Text: Mouse fibroblast cell line 3T3-L1, human lung cancer cell line A549, and human hepatoma cell line HepG2 were purchased from the RIKEN Bioresource Center (Japan). Mouse fibroblast cell line 3T3-F442A and human osteosarcoma cell line U2OS were purchased from the European Collection of Animal Cell Cultures (U.K.). p53 deficient mouse-derived fibroblast cell line HW (J. Med. Chem. (2010) 53, 4561-4584) was kindly provided by Dr. Masayuki Saito (Tenshi University, Japan). The cells were maintained in Dulbecco's modified Eagle's medium (low glucose) (WAKO, Japan) with 10% (3T3-L1, 3T3-F442A, HW, U2OS, and HepG2) or 5% (A549) fetal calf serum and 1% penicillin/streptomycin (SIGMA). Cpt and MG132 were purchased from WAKO (Japan).
We designed a mouse p53 shRNA expression vector based on target sequences for effective p53 knockdown, as previously reported (J. Biol. Chem. (2003) 278, 11731-11734). Two oligonucleotides, 5′-gatcccc[…]ttcaagaga[…]ttttt ggaaa-3′ (SEQ ID NO:1) and 5′-agcttttccaaaaa[…]tctcttgaa[…] ACggg-3′ (SEQ ID NO:2) (upper case letters, target sequences against p53; lower case letters, BgIII, HindIII or loop structure sequences) were chemically synthesized (Operon Biotechnology, USA). The annealed oligos were directly ligated into a BgIII and HindIII-digested pSUPER-puro shRNA expression vector gifted from Dr. Shigeo Ohno (Yokohama City University, Japan) (Cell Sci. (2006) 119, 2107-2118). The produced vector, termed pSUPER-puro-shmp53, was transfected with Lipofectamine LTX (Invitrogen, USA) into 3T3-L1 cells, according to the manufacturer's protocol. For stable p53 knockdown cell lines, the transfected cells were selected with puromycin and resistant clones were isolated by trypsinization using cloning cylinders.
p53 heterozygous mice (Accession Number, CDB 0001K) (Oncogene (1993) 8, 3313-3322) were purchased from RIKEN BRC (Saitama, Japan). p53 heterozygous males and females were crossed, and MEFs were prepared from the pregnant females. Each 13- to 15-day-old embryo was dissected from the uterus and washed with PBS. After removal of the head, tail, limbs, and blood-enriched organs, the trimmed embryo was washed with PBS and minced. After trypsinization at 37° C. for 10 min followed by inactivation of trypsin by addition of FCS, MEFs were separated by filtration through a cell-strainer. p53 status was confirmed by PCR using previously described primers (forward primer for p53 genomic sequence, 5′-[…]-3′ (SEQ ID NO:3); reverse primer for p53 genomic sequence, 5′-[…]-3′ (SEQ ID NO:4), forward primer for neo sequence, 5′-[…]-3′ (SEQ ID NO:5)) (Oncogene (1993) 8, 3313-3322), and the established MEFs were maintained in DMEM high glucose with 10% FCS, 2-mercaptoethanol (2-ME), and antibiotics.
Cells were lyzed by the addition of lysis buffer (50 mM Tris-HCl pH6.8, 2% SDS, 5% glycerol), boiled for 5 min, and sonicated. Protein concentrations of the soluble fraction were determined by BCA protein assay (PIERCE, USA) according to the manufacturer's protocol, and standardized by the addition of lysis buffer. Following this, the proteins were added to 2-ME and bromophenol blue so as to obtain final concentrations of 5% and 0.025%, respectively, and boiled for 5 min. Equal amounts of proteins (5 to 20 μg) were subjected to SDS-PAGE and transferred to nitrocellulose membranes. The membranes were blocked with 2.5% skim milk and 0.25% BSA in TBS (50 mM Tris, pH 7.4, 150 mM NaCl) containing 0.1% Tween 20 (TTBS) for 1 h at room temperature, and then probed with appropriate primary antibodies overnight at 4° C. or for 2 h at room temperature. As primary antibodies, anti-Parp1 (clone C-2-10, WAKO, Japan), anti-p53 (clone Ab-1, Calbiochem, USA), anti-βactin (clone AC-15, SIGMA, USA), or anti-caspase-3 (clone 1F3, MBL, Japan) antibodies were used. […]

Parp1 mRNA = Parp1 mRNA by RT-PCR; type: cell-based, mouse; conditions: 24 hours, FIG. 3A
Protocol: Cells were lyzed by RNAiso PLUS (TaKaRa, Japan), and then total RNA was purified using a FastPure RNA kit (TaKaRa, Japan) according to manufacturer's protocol. […] RNA was subjected to reverse transcription with PrimeScript Reverse Transcriptase (TaKaRa, Japan) and random hexamer (TaKaRa, Japan). The PCR reaction was performed using Platinum Taq DNA Polymerase High Fidelity (Invitrogen, USA) and Parp1 (forward, 5′-[…]-3′ (SEQ ID NO:6); reverse, 5′-[…]-3′ (SEQ ID NO:7)) or β-actin primers (forward, 5′-[…]-3′ (SEQ ID NO:8); reverse, 5′-[…]-3′ (SEQ ID NO:9)) as follows: initiation step, at 94° C. for 1 min; amplification step, 30 (Parp1) or 25 (β-actin) cycles of at 94° C. for 1 min, at 52° C. (Parp1) or 61° C. (β-actin) for 15 sec, at 68° C. for 15 sec; termination step, 68° C. 15 sec. PCR products were subjected to 1.8% agarose gel electrophoresis, stained with ethidium bromide, and visualized with LAS3000. The data was analyzed using MultiGauge software (FUJI FILM, Japan).

Parp1 protein [2] = assay: Parp1 protein levels by Western blotting in human cell lines; type: cell-based
Parp1 = conditions: cited from earlier work
caspase-3 = caspase-3 activation by Western blotting in mouse fibroblast cells; type: cell-based; conditions: 24 hours
[3] = 3T3-F442A cells, 8 hours, FIGS. 4A and 4B
[4] = 3T3-L1 cells, 8 hours, FIGS. 4A and 4B
[5] = 3T3-F442A cells, 24 hours, FIGS. 1A and 1B
[6] = 3T3-L1 cells, 24 hours, FIGS. 1A and 1B

COc1ccc(C2=N[C@H](c3ccc(C(F)(F)F)cc3)[C@H](c3ccc(C(F)(F)F)cc3)N2C(=O)N2CCNC(=O)C2)c(OC(C)C)c1 [Caylin2]
p53 protein stabilization (p53; 3T3-F442A cells): induced p53 protein stabilization
p53 protein stabilization (p53; 3T3-L1 cells): induced p53 protein stabilization
Parp1 cleavage / Parp1 protein (Parp1 protein [1]; 20 μM Caylin2, 8 hours): induced Parp1 protein decrease without any trace of its apoptotic cleavage
Parp1 cleavage / Parp1 protein (Parp1 protein [1]; 100 μM Caylin2, 8 hours): induced Parp1 cleavage
Parp1 protein levels (Parp1 protein [1]; [3]): markedly decreased the Parp1 protein levels
Parp1 protein levels (Parp1 protein [1]; [4]): markedly decreased the Parp1 protein levels
Parp1 reduction, p53 dependency (Parp1 protein [1]; 8 hours, FIGS. 5A and 5B): reduces the Parp1 protein levels in a p53-dependent manner

COc1ccc(C2=N[C@@H](c3ccc(Cl)cc3)[C@@H](c3ccc(Cl)cc3)N2C(=O)N2CCNC(=O)C2)c(OC(C)C)c1 [Nutlin3a]
Parp1 mRNA (Parp1 mRNA; p53 deficient cell lines (3T3-L1/shp53 and HW)): did not change
Parp1 mRNA (Parp1 mRNA; p53 proficient cell lines (3T3-L1 and 3T3-F442A)): did not change
Nutlin3a-induced Parp1 decrease (Parp1 protein [2]; A549 cells, 24 h, FIG. 1D): detected the Nutlin3a-induced Parp1 decrease in only A549 cells
reduction in Parp1 protein (Parp1 protein [2]; HCT116 cells, various doses of Nutlin3a, data not shown): no significant reduction in Parp1 protein other than apoptotic cleavage
Parp1 protein levels (Parp1 protein [1]; [3]): markedly decreased the Parp1 protein levels
Parp1 protein levels (Parp1 protein [1]; [5]): markedly decreased it
decrease in Parp1 (Parp1 protein [1]; 3T3-L1/shp53 cells (p53 stable knockdown), FIG. 2B): diminished significantly
decrease in Parp1 (Parp1 protein [1]; 3T3-L1 cells with shRNA-mediated transient knockdown of p53, FIG. 2A): attenuated the decrease in Parp1
Parp1 protein levels (Parp1 protein [1]; [4]): markedly decreased the Parp1 protein levels
Parp1 protein levels (Parp1 protein [1]; [6]): markedly decreased it
Parp1 protein, time course (Parp1 protein [1]; 3T3-L1 or 3T3-F442A cells, 25 μM for 8 h, FIG. 1C): Parp1 protein diminished
decrease in Parp1 (Parp1 protein [1]; HW cells (p53 deficient), FIG. 2B): diminished significantly
Parp1 reduction, p53 dependency (Parp1 protein [1]; 24 hours, FIG. 2C): reduces the Parp1 protein levels in a p53-dependent manner
levels of full length of Parp1 protein (Parp1 protein [1]; Nutlin3a-treated 3T3-L1, first observation): significant reduction in the levels of full length of Parp1 protein without cleavage into p85 and p25 apoptotic fragments
cleavage of Parp1 (Parp1; human colon cancer cell line HCT116): induces cleavage of Parp1 into two apoptotic fragments
cleavage of Parp1 (Parp1; human myeloid leukemia cell line ML-1): induces cleavage of Parp1 into two apoptotic fragments
cell viability (trypan blue exclusion) (3T3-L1 cells): the cells were viable
caspase-3 activation (caspase-3; 3T3-F442A cells): no caspase-3 activation
caspase-3 activation (caspase-3; 3T3-L1 cells): no caspase-3 activation

CC[C@@]1(O)C(=O)OCc2c1cc1n(c2=O)Cc2cc3ccccc3nc2-1 [Cpt, camptothecin]
p53 stabilization (p53; 3T3-F442A cells): induced p53 stabilization
p53 stabilization (p53; 3T3-L1 cells): induced p53 stabilization
p53 accumulation (p53): induced p53 accumulation
Parp1 protein levels (Parp1 protein [1]; [5]): did not alter the Parp1 protein levels
Parp1 protein levels (Parp1 protein [1]; [6]): did not alter the Parp1 protein levels
reduction in Parp1 protein (Parp1 protein [1]): did not evoke a significant reduction in Parp1 protein
caspase-3 activation (caspase-3; 3T3-F442A cells): no caspase-3 activation
caspase-3 activation (caspase-3; 3T3-L1 cells): no caspase-3 activation

CC(C)C[C@@H](C=O)NC(=O)[C@H](CC(C)C)NC(=O)[C@H](CC(C)C)NC(=O)OCc1ccccc1 [MG132] (Cbz-Leu-Leu-Leu-aldehyde)
p53 accumulation (p53): induced p53 accumulation
effect on Caylin2-induced reduction in Parp1 (Parp1 protein [1]; 5 μM MG132 with 20 μM Caylin2, 8 hours, 3T3-L1 cells, FIG. 6B): clearly inhibited the Caylin2-induced reduction in Parp1
effect on Nutlin3a-induced reduction in Parp1 (Parp1 protein [1]; 5 μM MG132 with 25 μM Nutlin3a, 8 hours, 3T3-L1 and 3T3-F442A cells, FIG. 3B): clearly inhibited the Nutlin3a-induced reduction in Parp1
basal Parp1 protein levels (Parp1 protein [1]; 8 hours, 3T3-L1 and 3T3-F442A cells, FIG. 3B): did not affect basal Parp1 protein levels
basal Parp1 protein levels (Parp1 protein [1]; 8 hours, 3T3-L1 cells, FIG. 6B): did not affect basal Parp1 protein levels
reduction in Parp1 protein (Parp1 protein [1]): did not evoke a significant reduction in Parp1 protein

N.N.[Cl][Pt][Cl] [cisplatin]
p53 accumulation (p53): induced p53 accumulation
Parp1 protein levels (Parp1 protein [1]; cisplatin treatment, data not shown): did not affect Parp1 protein levels
reduction in Parp1 protein (Parp1 protein [1]): did not evoke a significant reduction in Parp1 protein
